Results from patent US8415469B2, “Compounds and methods for kinase modulation, and indications therefor” (Plexxikon Inc., priority 2005, dated 2013).
One block for each compound: values may come before it.

Legend:
Format in all cases: biochemical
Plk1 = Plk1 (Homo sapiens, UniProt P53350); test: AlphaScreen kinase assay, Plk1; details: read-out: IC50, activity toward kinase Plk1
From the text: (§1) AlphaScreen assay was used to screen additional kinases. The assay is similarly dependent on the phosphorylation of a peptide substrate. In this assay, an antibody that recognizes phosphorylated substrate is bound to an acceptor bead. The peptide substrate is attached to biotin, which binds to a donor head that contains streptavidin. Thus phosphorylated substrate is bound by antibody and streptavidin, bringing the donor and acceptor heads into close proximity when kinase is not inhibited. The donor produces singlet oxygen which results in emission from the acceptor when they are in close proximity. Conversely, when kinase is inhibited, the donor and acceptor beads are not associated and the emission from the acceptor is reduced.
(§2) AlphaScreen assays were done using compounds dissolved in DMSO to a concentration of 20 mM. The compounds were diluted accordingly to the desired final concentrations in each sample well, using 1:3 serial dilution for a total of 8 concentration points.

B-Raf V600E = molecular target: T1, B-Raf V600E (Homo sapiens, UniProt P15056, V600E); test: AlphaScreen kinase assay, B-Raf V600E; details: read-out: IC50, activity toward kinase B-Raf V600E
T1 construct: P4254. pFastBacBD-CDC37 BRAF D437-K722-X, V600E; His6 with pFastBac HT leader (TEV site) (N); made in house; host or cells: Sf9 (baculovirus; chaperone CDC37 co-expressed)

Kdr = molecular target: T2, Kdr (Homo sapiens, UniProt P35968); test: Z'-Lyte FRET kinase assay (Invitrogen), Kdr; details: read-out: IC50, activity toward kinase Kdr
T2 construct: purchased Invitrogen (assay run by Invitrogen)

Jnk3 = molecular target: T3, Jnk3 (Homo sapiens, UniProt P53779); test: AlphaScreen kinase assay, Jnk3; details: read-out: IC50, activity toward kinase Jnk3
T3 construct: purchased Upstate Biotechnology

FGFR1 = molecular target: T4, FGFR1 (Homo sapiens, UniProt P11362, C488A/C584S); test: AlphaScreen kinase assay, FGFR1; details: read-out: IC50, activity toward kinase FGFR
T4 construct: P1351.pET N6 BI-PTP FGFR A458-E765-X C488A, C584S; made in house; host or cells: E. coli (PTP1B co-expressed)

Itk = molecular target: T5, Itk (Homo sapiens, UniProt Q08881); test: AlphaScreen kinase assay, Itk; details: read-out: IC50, activity toward kinase Itk
T5 sequence (Q08881 1-620): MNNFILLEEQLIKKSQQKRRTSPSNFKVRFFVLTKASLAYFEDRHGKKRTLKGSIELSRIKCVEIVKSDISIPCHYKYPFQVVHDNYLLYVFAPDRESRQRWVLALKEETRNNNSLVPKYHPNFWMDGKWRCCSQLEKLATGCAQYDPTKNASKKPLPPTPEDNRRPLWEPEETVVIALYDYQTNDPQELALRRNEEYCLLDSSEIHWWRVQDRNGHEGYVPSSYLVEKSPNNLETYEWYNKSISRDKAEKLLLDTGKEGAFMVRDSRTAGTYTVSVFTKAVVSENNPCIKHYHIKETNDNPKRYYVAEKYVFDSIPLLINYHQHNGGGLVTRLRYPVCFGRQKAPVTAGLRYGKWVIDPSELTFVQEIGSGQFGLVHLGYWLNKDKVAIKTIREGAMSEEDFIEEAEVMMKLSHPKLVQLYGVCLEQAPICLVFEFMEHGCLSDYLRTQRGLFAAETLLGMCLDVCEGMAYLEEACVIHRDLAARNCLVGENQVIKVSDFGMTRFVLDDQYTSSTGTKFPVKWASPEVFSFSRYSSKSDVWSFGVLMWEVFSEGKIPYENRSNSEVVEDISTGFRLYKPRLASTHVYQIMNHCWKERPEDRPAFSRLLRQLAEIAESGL
From the text: as §1, §2

Kit = molecular target: T6, Kit (Homo sapiens, UniProt P10721); test: AlphaScreen kinase assay, Kit; details: read-out: IC50, activity toward kinase Kit
T6 construct: P1332.N6 BI PTP KIT M552-K948-X COD; His6 (N); made in house; host or cells: E. coli (PTP1B co-expressed)

Fak = molecular target: T7, Fak (Homo sapiens, UniProt Q05397); test: AlphaScreen kinase assay, Fak; details: read-out: IC50, activity toward kinase Fak
T7 construct: P1358.pFastBacHtb FAK S411-Q686-X; His6 with pFastBacHTb leader (TEV site) (N); made in house; host or cells: Sf9 (baculovirus)

Flt1 = molecular target: T8, Flt1 (Homo sapiens, UniProt P17948); test: AlphaScreen kinase assay, Flt1; details: read-out: IC50, activity toward kinase Flt1
T8 construct: P1826.pETN6 BI-PTP FLT1 M799-D1165-X WT; His6 (N); made in house; host or cells: E. coli (PTP1B co-expressed)
T8 sequence (P17948 with tags, fused parts or gaps): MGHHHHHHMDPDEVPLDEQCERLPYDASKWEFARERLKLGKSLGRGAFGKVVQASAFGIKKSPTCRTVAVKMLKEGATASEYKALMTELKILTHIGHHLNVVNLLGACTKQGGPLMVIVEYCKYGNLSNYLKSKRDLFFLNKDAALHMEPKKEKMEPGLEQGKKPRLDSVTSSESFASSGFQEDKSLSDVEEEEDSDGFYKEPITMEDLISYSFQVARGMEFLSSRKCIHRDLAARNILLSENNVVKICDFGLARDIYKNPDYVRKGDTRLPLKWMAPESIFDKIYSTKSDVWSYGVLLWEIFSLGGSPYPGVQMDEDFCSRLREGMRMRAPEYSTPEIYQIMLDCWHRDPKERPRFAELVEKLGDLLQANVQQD

Akt3 = Akt3 (Homo sapiens, UniProt Q9Y243); test: AlphaScreen kinase assay, Akt3; details: read-out: IC50, activity toward kinase Akt3
Method in brief: (§3)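 Biotinylated peptide substrate is phosphorylated by kinase; anti-phosphopeptide antibody on acceptor beads and streptavidin donor beads bring emission when substrate is phosphorylated. Inhibition lowers acceptor signal. Compounds from 20 mM DMSO stock tested as 8-point 1:3 serial dilutions.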

Met = molecular target: T9, Met (Homo sapiens, UniProt P08581); test: AlphaScreen kinase assay, Met; details: read-out: IC50, activity toward kinase Met
T9 construct: P1818.pETN6 BI-PTP MET G1056-G1364-X WT; His6 (N); made in house; host or cells: E. coli (PTP1B co-expressed)
Method in brief: as §3

Stk6 = molecular target: T10, Stk6 (Homo sapiens, UniProt O14965); test: Z'-Lyte FRET kinase assay (Invitrogen), Stk6; details: read-out: IC50, activity toward kinase Stk6
T10 construct: purchased Invitrogen (Carlsbad, Calif.), screening service
T10 sequence (O14965 1-403): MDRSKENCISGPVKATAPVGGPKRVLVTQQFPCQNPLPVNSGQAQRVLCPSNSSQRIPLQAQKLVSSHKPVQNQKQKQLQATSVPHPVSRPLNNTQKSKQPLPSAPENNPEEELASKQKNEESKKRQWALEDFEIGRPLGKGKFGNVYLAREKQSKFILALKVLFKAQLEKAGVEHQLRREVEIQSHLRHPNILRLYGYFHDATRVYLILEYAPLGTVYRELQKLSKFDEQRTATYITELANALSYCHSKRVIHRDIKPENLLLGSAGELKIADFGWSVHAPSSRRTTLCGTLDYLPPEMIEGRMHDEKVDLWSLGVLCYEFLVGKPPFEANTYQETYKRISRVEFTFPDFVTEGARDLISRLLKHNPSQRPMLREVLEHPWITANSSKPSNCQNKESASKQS

Abl = molecular target: T11, Abl (Homo sapiens, UniProt P00519); test: AlphaScreen kinase assay, Abl; details: read-out: activity toward kinase Abl, IC50
T11 construct: P1121. pET-SPEC BI-PTP Abl G227-V515-X; His6 (N); made in house; host or cells: E. coli (PTP1B co-expressed)
T11 sequence (P00519 with tags, fused parts or gaps): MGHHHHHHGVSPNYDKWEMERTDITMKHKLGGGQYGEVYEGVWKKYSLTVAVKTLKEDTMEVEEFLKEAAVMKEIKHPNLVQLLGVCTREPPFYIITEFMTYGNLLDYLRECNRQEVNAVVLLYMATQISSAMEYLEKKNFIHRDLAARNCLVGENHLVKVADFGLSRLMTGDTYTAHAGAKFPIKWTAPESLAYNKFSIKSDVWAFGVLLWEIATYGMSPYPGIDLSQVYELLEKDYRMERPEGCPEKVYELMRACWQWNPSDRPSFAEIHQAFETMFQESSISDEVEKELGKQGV
Method in brief: as §3

Flt4 = molecular target: T12, Flt4 (Homo sapiens, UniProt P35916); test: AlphaScreen kinase assay, Flt4; details: read-out: IC50, activity toward kinase Flt4
T12 construct: purchased ProQinase GmbH (Freiburg, Germany)
Method in brief: as §3

B-Raf = molecular target: T13, B-Raf (Homo sapiens, UniProt P15056); test: AlphaScreen kinase assay, B-Raf; details: read-out: IC50, activity toward kinase B-Raf
T13 construct: purchased Upstate Biotechnology

Jnk1 = molecular target: T14, Jnk1 (Homo sapiens, UniProt P45983); test: AlphaScreen kinase assay, Jnk1; details: read-out: IC50, activity toward kinase Jnk1
T14 construct: purchased Upstate Biotechnology

Jnk2 = molecular target: T15, Jnk2 (Homo sapiens, UniProt P45984); test: AlphaScreen kinase assay, Jnk2; details: read-out: IC50, activity toward kinase Jnk2
T15 construct: purchased Roche Protein Expression Group (Indianapolis, IN)
Method in brief: as §3

Ret = molecular target: T16, Ret (Homo sapiens, UniProt P07949); test: AlphaScreen kinase assay, Ret; details: read-out: IC50, activity toward kinase Ret
T16 construct: P1378.pET-SF BI-PTP RET H661-R1012 HIS; made in house
T16 sequence (P07949 with tags, fused parts or gaps): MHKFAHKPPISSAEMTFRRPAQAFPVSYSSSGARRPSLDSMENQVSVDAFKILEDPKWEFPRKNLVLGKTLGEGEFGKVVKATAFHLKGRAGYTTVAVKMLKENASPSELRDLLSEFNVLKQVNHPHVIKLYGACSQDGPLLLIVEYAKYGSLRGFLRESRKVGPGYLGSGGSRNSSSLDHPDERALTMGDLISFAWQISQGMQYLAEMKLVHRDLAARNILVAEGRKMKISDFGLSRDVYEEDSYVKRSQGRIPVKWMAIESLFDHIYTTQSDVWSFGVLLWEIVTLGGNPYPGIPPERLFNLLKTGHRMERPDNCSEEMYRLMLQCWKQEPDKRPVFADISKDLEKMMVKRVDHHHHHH

Btk = molecular target: T17, Btk (Homo sapiens, UniProt Q06187); test: Z'-Lyte FRET kinase assay (Invitrogen), Btk; details: read-out: IC50, activity toward kinase Btk
T17 construct: purchased Invitrogen (assay run by Invitrogen)

c-Raf-1 = molecular target: T18, c-Raf-1 (Homo sapiens, UniProt P04049); test: AlphaScreen kinase assay, c-Raf-1; details: read-out: IC50, activity toward kinase c-Raf-1
T18 construct: purchased Upstate Biotechnology

Fms = molecular target: T19, Fms (Homo sapiens, UniProt P07333); test: AlphaScreen kinase assay, Fms; details: read-out: IC50, activity toward kinase Fms
T19 construct: purchased Upstate Biotechnology

T1 sequence (P15056 with tags, fused parts or gaps V600E): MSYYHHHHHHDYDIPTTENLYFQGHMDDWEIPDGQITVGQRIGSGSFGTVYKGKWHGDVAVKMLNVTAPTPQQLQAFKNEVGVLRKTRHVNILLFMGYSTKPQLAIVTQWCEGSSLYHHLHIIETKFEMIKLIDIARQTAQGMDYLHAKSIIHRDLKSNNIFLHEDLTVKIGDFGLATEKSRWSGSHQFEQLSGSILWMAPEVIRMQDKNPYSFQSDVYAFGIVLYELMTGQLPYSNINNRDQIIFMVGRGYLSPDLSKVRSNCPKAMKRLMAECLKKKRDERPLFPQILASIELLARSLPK
T3 sequence (P53779 whole entry): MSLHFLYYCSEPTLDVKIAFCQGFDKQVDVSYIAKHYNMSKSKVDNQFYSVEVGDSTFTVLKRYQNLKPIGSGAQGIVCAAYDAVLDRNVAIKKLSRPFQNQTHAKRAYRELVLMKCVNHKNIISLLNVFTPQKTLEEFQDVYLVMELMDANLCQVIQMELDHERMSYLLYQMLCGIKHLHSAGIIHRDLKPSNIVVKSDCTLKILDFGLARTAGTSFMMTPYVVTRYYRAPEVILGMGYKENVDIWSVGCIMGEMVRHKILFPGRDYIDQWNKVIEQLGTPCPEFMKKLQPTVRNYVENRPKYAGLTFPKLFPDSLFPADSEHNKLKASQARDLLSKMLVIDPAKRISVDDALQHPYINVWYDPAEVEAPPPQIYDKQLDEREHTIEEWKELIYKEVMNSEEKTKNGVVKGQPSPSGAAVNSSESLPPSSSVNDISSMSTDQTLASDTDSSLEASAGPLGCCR
T6 sequence (P10721 with tags, fused parts or gaps): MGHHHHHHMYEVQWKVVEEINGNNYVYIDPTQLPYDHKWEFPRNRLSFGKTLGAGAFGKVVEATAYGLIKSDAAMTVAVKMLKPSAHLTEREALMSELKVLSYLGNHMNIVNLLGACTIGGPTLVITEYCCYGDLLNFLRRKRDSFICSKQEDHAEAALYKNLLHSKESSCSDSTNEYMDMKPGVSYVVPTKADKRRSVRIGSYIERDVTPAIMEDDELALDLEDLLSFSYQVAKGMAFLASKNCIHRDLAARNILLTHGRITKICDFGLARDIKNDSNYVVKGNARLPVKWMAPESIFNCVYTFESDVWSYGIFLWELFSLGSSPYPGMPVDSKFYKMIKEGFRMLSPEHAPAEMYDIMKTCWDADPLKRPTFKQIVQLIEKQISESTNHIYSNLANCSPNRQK
Chain of Plk1 (P53350 whole entry): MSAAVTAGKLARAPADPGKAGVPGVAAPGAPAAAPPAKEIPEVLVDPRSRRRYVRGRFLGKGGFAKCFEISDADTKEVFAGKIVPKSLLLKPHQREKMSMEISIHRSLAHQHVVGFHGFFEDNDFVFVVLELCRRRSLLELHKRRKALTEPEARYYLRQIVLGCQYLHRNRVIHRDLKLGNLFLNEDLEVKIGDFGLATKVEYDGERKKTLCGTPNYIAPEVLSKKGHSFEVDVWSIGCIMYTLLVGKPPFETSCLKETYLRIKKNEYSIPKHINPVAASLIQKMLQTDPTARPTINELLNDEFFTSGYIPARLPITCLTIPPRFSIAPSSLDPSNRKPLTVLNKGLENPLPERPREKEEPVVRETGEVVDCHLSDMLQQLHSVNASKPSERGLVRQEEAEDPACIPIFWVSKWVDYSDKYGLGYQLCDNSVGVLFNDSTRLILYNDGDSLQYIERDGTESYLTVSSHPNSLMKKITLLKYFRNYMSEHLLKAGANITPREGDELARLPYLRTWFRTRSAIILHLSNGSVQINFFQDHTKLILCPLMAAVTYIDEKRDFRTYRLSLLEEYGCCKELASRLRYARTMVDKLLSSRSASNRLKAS
T2 sequence (P35968 20-1356): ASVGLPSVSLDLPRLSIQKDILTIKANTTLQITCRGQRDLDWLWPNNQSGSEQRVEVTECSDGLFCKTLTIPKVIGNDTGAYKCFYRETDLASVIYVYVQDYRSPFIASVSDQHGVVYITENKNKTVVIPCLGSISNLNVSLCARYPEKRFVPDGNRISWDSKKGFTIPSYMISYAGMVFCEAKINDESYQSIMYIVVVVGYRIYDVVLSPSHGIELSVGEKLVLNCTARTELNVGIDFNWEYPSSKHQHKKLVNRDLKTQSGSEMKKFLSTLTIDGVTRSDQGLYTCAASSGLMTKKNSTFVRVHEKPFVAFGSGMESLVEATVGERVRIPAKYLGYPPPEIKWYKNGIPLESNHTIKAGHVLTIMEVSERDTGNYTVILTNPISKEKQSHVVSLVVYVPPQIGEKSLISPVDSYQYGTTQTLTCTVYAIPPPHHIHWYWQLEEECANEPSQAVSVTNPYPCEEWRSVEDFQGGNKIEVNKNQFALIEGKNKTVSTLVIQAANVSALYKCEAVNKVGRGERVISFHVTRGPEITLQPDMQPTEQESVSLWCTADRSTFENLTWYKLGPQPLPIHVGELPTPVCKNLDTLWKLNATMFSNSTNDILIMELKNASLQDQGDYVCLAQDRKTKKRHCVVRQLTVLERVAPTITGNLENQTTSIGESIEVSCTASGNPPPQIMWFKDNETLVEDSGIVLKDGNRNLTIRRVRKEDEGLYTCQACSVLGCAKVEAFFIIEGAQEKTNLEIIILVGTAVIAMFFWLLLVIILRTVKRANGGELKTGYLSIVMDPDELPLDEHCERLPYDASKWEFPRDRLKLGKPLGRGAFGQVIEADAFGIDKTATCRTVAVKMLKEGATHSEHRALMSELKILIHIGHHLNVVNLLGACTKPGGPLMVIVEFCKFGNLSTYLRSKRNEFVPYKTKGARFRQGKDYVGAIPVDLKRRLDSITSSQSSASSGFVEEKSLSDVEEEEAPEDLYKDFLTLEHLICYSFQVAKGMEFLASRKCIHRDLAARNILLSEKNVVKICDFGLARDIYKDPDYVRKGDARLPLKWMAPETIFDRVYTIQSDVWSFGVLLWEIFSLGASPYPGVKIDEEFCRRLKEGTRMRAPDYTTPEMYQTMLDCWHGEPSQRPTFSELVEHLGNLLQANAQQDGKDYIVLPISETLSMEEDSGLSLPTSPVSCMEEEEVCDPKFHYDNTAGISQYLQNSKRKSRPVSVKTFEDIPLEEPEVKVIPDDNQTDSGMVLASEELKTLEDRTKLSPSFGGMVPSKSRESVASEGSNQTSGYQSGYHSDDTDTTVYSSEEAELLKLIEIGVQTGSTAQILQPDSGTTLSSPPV
T9 sequence (P08581 with tags, fused parts or gaps): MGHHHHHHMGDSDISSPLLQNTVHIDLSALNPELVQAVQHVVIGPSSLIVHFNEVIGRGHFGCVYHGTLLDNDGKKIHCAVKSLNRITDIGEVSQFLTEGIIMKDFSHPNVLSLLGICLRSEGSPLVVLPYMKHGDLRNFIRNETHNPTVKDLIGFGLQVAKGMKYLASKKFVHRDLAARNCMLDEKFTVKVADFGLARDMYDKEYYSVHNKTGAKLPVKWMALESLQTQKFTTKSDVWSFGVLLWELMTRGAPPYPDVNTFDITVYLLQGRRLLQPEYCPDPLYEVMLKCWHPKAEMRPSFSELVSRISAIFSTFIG
T13 sequence (P15056 whole entry): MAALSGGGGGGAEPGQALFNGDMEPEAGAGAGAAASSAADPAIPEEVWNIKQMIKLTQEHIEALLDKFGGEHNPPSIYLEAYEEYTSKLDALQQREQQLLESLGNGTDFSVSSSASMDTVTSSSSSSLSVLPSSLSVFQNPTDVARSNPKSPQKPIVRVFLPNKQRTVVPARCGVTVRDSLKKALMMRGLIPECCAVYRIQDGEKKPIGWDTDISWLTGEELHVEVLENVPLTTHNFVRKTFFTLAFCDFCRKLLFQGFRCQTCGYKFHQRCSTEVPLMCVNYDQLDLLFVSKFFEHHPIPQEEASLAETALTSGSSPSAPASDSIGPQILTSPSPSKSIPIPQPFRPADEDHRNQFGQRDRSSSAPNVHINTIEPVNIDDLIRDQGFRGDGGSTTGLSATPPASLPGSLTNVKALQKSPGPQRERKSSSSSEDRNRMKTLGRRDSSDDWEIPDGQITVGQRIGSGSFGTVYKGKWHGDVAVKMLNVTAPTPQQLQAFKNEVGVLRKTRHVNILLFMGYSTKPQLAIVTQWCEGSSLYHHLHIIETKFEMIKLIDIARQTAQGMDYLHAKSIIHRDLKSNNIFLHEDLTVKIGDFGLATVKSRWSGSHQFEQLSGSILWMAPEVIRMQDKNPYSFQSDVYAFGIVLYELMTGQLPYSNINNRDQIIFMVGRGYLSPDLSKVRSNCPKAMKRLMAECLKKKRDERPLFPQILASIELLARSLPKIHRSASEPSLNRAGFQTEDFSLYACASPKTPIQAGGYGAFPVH
T4 sequence (P11362 458-765 C488A/C584S): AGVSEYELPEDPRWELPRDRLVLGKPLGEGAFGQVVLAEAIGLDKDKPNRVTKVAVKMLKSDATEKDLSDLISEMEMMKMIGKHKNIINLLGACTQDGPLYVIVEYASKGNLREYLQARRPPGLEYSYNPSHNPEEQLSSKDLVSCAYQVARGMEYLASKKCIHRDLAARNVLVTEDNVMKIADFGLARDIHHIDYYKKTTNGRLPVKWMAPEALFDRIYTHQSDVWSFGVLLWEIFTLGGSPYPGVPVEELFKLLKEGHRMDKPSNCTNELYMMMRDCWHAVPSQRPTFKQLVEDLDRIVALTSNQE
T7 sequence (Q05397 411-686): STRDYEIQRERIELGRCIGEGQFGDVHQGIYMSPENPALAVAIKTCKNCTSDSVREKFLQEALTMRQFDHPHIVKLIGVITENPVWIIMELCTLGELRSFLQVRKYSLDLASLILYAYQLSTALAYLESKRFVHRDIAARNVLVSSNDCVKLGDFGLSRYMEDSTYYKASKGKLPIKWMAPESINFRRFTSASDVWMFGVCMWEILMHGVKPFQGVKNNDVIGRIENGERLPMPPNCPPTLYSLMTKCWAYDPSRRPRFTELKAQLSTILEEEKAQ

IC50 (Plk1): ≤ 10 µM
SMILES: Cc1cc(C(=O)c2c[nH]c3nccc(-c4cccc(N)c4)c23)n(C)n1 [Compound P-0332]

IC50 (Abl): ≤ 10 µM
IC50 (B-Raf V600E): ≤ 10 µM
IC50 (Kdr): ≤ 10 µM
IC50 (Jnk3): ≤ 10 µM
IC50 (FGFR1): ≤ 10 µM
IC50 (Flt4): ≤ 10 µM
IC50 (Itk): ≤ 10 µM
IC50 (B-Raf): ≤ 10 µM
IC50 (Jnk1): ≤ 10 µM
IC50 (Kit): ≤ 10 µM
IC50 (Jnk2): ≤ 10 µM
IC50 (Ret): ≤ 10 µM
IC50 (Flt1): ≤ 10 µM
SMILES: COc1cccc(C(=O)c2c[nH]c3ncc(-c4cccc(N)c4)cc23)c1 [Compound P-0579]

IC50 (Kdr): ≤ 10 µM
IC50 (Plk1): ≤ 10 µM
IC50 (Btk): ≤ 10 µM
IC50 (Ret): ≤ 10 µM
SMILES: O=C(c1ccc(Cl)cc1)c1c[nH]c2nccc(-c3cccnc3)c12 [Compound P-0113]

IC50 (Plk1): ≤ 10 µM
IC50 (Ret): ≤ 10 µM
SMILES: Clc1ccc(Cc2c[nH]c3nccc(-c4ccccc4)c23)cn1 [Compound P-0286]

IC50 (B-Raf V600E): ≤ 10 µM
IC50 (Jnk3): ≤ 10 µM
IC50 (Itk): ≤ 10 µM
IC50 (B-Raf): ≤ 10 µM
IC50 (c-Raf-1): ≤ 10 µM
IC50 (Kit): ≤ 10 µM
IC50 (Fms): ≤ 10 µM
IC50 (Ret): ≤ 10 µM
IC50 (Met): ≤ 10 µM
SMILES: Oc1cccc(Cc2c[nH]c3ncc(-c4cccnc4)cc23)c1F [Compound P-0778, 2-Fluoro-3-(5-pyridin-3-yl-1H-pyrrolo[2,3-b]pyridin-3-ylmethyl)-phenol]

Second part, the compound before the results:

SMILES: O=C(O)CCc1c[nH]c2ncccc12 [Compound P-0490]
IC50 (Plk1): ≤ 10 µM

SMILES: CCN(CC)c1ccc(Nc2cnc3[nH]ccc3c2)cc1 [Compound P-0951]
IC50 (B-Raf V600E): ≤ 10 µM
IC50 (Kdr): ≤ 10 µM
IC50 (Jnk3): ≤ 10 µM
IC50 (FGFR1): ≤ 10 µM
IC50 (Itk): ≤ 10 µM
IC50 (Kit): ≤ 10 µM
IC50 (Fak): ≤ 10 µM
IC50 (Flt1): ≤ 10 µM
IC50 (Akt3): ≤ 10 µM
IC50 (Met): ≤ 10 µM

SMILES: O=S(=O)(NCc1ccnc2[nH]ccc12)c1ccc(F)c(F)c1 [Compound P-0345]
IC50 (Plk1): ≤ 10 µM
IC50 (Stk6): ≤ 10 µM

SMILES: O=S(=O)(Cc1cccc(Cl)c1)NCc1c[nH]c2ncccc12 [Compound P-1138]
IC50 (B-Raf V600E): ≤ 10 µM
IC50 (Plk1): ≤ 10 µM

SMILES: O=[N+]([O-])c1ccc(S(=O)(=O)NCc2ccnc3[nH]ccc23)cc1 [Compound P-0366]
IC50 (Plk1): ≤ 10 µM

SMILES: O=[N+]([O-])c1cccc(S(=O)(=O)NCc2ccnc3[nH]ccc23)c1 [Compound P-0480]
IC50 (Plk1): ≤ 10 µM

SMILES: O=S(=O)(Cc1ccccc1)NCc1c[nH]c2ncccc12 [Compound P-0581]
IC50 (Plk1): ≤ 10 µM
